Data on four compounds can be found in patent US11498915B2, “TrkA Inhibitor” (Eli Lilly and Company, priority 2020, dated 2022).

The target of assay [1] is T1, hTrkB (Homo sapiens, UniProt Q16620). The assay can be described thus: PathHunter cell-based assay, inhibition of SH2 domain protein recruitment, hTrkB-p75 U2OS cells. Also noted: host or cells: U2OS (human bone osteosarcoma epithelial cells), PathHunter hTrkB-p75. An excerpt:
(§1) In Vitro Inhibition of SH2 Domain Protein Recruitment in Human Bone Osteosarcoma Epithelial Cells by Human Tropomyosin Receptor Kinase (hTrk) Inhibitors
(§2) Activation of hTrkA, TrkB or TrkC is examined using PathHunter® (DiscoverX) enzyme fragment complementation technology. In this approach, one fragment of β-galactosidase (β-gal) ProLink (PK) is fused to the C-terminal of the Trk receptor and co-expressed with a phosphotyrosine SH2 domain protein fused with the remaining fragment of β-gal, Enzyme Acceptor (EA), in human Bone Osteosarcoma Epithelial (hU2OS) cells also expressing the p75 neurotrophic receptor (DiscoverX). Activation of hTrk receptors by agonists results in receptor phosphorylation. The SH2-EA fusion protein binds the phosphorylated hTrk receptor resulting in complementation of PK and EA to form an active β-gal enzyme. β-gal enzymatic activity is quantitatively measured using a chemiluminescent substrate in the PathHunter® detection kit (DiscoverX). […]
(§3) Inhibition of hTrk kinase activity: The activity of hTrkA and hTrkC kinase is quantitated using Pathhunter® technology (DiscoverX) as per vendor instructions.
(§4) Briefly, on the assay day, compounds for dose-response studies are serially diluted in dimethyl sulfoxide (1:3 for 10 concentrations) using an acoustic dispensing instrument Echo Access (Labcyte) and dispensed into cell plates that are subsequently incubated at room temperature (RT) for one hour. […] Pathhunter® detection reagents (DiscoverX) are added and plates are read in an ENVISION® plate reader (Perkin-Elmer) at 700 nm after 1 h incubation at RT in the dark. […]
(§5) Data Analysis: The data are converted into % Inhibition and relative IC50 values are calculated from the top-bottom range of the concentration response curve using a four-parameter logistic curve fitting program (GENEDATA SCREENER® v13.0.5) with the equation Y=Bottom+(Top-Bottom)/(1+10^((Log IC50−X)*HillSlope)). […]
Target sequence in this assay (Q16620 32-822): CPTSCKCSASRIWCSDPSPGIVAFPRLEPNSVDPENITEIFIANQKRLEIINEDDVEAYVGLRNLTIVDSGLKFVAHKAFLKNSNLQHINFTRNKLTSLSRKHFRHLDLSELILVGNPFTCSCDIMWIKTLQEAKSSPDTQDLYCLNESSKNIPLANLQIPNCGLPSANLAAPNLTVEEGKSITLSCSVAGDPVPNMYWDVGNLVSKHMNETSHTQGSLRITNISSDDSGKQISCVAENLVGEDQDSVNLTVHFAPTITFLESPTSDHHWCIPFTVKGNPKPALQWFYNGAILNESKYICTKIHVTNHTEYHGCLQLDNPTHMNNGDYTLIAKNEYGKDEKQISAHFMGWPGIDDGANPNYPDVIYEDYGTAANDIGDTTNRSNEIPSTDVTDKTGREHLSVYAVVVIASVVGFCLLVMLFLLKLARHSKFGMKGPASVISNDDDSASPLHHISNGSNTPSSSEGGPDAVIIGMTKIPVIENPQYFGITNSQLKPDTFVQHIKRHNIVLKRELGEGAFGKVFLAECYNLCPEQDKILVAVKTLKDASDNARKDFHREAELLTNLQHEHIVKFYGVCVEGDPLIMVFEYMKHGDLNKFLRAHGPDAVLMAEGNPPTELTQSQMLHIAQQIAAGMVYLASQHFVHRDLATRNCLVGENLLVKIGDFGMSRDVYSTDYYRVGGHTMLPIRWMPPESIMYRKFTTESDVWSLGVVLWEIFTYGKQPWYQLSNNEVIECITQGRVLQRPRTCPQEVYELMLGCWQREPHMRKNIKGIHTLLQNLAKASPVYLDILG

In assay [2] the target is T2, hTrkC (Homo sapiens, UniProt Q16288). The experiment in a line: hTrk kinase TR-FRET assay (headed Binding Assays), hTrkC kinase domain. Particulars: hTrkC kinase domain aa 510-825, N = 1, read-out: Relative IC50 hTrkC, Binding Assays. Set-up: hTrkC, aa: 510-825. The assay is classed as biochemical. An excerpt: (§6) Human Tropomyosin Receptor Kinase (hTrkA, hTrkB, hTrkC) Assays to Examine hTrk Kinase Inhibitors
(§7) The reaction of non-phosphorylated hTrk kinase domains (hTrkA, aa: 441-796, hTrkB, aa: 526-838 or hTrkC, aa: 510-825) with a fluorescein-labeled poly-GT substrate (poly-GT, Invitrogen) generates a fluorescein-labeled phosphorylated product. Binding of the terbium-labeled antibody (Invitrogen) to the phosphorylated tyrosine product brings the terbium and fluorescein into proximity, resulting in an increase in time-resolved fluorescence resonance energy transfer (TR-FRET). In the presence of an inhibitor, formation of phosphorylated product is reduced, and the TR-FRET value is decreased.
(§8) Inhibition of hTrk kinase activity: The activity of human tropomyosin receptor hTrk kinase is quantitated using TR-FRET technology (Invitrogen) as per vendor instructions. Briefly, compounds for dose-response studies are serially diluted in dimethyl sulfoxide (1:2 for 20 concentrations) using an acoustic dispensing instrument Echo Access (Labcyte) and dispensed into ProxiPlate-384 plus plates (PerkinElmer). […] EDTA and terbium-labeled antibody are added and plates are incubated at RT for one hour after which the TR-FRET signal is detected using an ENVISION® plate reader (Perkin-Elmer). The ratio of fluorescence at 520 to 495 nm is calculated. […]
Target sequence in this assay (Q16288 510-825 isoform Q16288-3): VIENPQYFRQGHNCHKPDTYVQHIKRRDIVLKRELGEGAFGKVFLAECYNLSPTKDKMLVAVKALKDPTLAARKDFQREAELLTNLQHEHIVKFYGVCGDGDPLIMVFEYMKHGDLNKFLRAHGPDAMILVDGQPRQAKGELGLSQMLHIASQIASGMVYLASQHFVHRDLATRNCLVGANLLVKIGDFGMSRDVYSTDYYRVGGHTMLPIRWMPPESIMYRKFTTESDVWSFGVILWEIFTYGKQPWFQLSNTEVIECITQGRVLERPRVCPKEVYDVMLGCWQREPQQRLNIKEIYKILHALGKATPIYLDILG
On the technique in general: In TR-FRET formats the signal depends on donor and acceptor labels being close together.

Assay [3] concerns the target T2, hTrkC. The assay can be described thus: PathHunter cell-based assay, inhibition of SH2 domain protein recruitment, hTrkC-p75 U2OS cells. Set-up: host or cells: U2OS (human bone osteosarcoma epithelial cells), PathHunter hTrkC-p75.
From the text: as §1, §2, §3, §4, §5
Target sequence in this assay (Q16288 32-839): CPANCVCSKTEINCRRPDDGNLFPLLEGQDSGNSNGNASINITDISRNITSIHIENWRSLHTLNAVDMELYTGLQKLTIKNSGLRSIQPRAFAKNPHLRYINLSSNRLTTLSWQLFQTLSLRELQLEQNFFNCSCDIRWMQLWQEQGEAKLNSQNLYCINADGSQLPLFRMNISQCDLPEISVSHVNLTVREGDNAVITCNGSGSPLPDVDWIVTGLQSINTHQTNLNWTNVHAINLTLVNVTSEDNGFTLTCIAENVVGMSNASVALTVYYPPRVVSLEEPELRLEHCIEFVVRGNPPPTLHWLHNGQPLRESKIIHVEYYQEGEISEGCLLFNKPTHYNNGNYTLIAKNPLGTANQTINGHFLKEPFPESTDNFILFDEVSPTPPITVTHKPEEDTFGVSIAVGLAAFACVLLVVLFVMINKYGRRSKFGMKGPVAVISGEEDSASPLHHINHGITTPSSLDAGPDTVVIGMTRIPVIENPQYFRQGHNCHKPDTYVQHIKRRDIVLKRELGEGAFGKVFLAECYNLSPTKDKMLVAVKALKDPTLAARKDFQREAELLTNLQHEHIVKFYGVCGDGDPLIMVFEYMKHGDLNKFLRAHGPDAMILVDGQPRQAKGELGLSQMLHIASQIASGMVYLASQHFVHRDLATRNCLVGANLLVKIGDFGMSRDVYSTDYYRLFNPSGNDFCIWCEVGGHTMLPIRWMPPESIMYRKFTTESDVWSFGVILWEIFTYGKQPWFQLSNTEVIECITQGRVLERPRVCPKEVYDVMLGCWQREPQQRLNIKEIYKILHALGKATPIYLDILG

Assay [4] deals with T1, hTrkB. The assay can be described thus: hTrk kinase TR-FRET assay (headed Binding Assays), hTrkB kinase domain. The assay is classed as biochemical. Set-up: hTrkB, aa: 526-838. The note with it: hTrkB kinase domain aa 526-838, N = 1, read-out: Relative IC50 hTrkB, Binding Assays.
From the text: as §6, §7, §8
Target sequence in this assay (Q16620 510-822): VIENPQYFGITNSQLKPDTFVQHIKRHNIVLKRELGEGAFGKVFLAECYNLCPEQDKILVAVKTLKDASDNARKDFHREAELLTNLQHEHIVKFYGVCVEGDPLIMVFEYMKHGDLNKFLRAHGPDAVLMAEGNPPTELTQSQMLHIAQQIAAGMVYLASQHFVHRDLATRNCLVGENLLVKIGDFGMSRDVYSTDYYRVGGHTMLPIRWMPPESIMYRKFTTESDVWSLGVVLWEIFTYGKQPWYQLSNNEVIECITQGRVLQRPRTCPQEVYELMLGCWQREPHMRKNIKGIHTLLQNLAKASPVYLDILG

In assay [5] the target is T3, hTrkA (Homo sapiens, UniProt P04629). The experiment in a line: hTrk kinase TR-FRET assay (headed Binding Assays), hTrkA kinase domain. The assay is classed as biochemical. Particulars: hTrkA kinase domain aa 441-796, N = 4, read-out: Relative IC50 hTrkA, Binding Assays. Also noted: hTrkA, aa: 441-796.
From the text: as §6, §7, §8
Target sequence in this assay (P04629 441-796): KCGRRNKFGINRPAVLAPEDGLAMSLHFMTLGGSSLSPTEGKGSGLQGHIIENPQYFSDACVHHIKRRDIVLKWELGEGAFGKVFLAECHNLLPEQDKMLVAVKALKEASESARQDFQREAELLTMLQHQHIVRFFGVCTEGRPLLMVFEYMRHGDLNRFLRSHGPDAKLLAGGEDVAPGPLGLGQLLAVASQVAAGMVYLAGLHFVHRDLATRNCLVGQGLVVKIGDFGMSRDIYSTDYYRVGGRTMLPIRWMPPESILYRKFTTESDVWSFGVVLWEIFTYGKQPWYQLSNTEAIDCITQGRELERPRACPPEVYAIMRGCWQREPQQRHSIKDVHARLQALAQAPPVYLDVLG

Assay [6] has as its target T3, hTrkA. The assay can be described thus: PathHunter cell-based assay, inhibition of SH2 domain protein recruitment, hTrkA-p75 U2OS cells. Set-up: host or cells: U2OS (human bone osteosarcoma epithelial cells), PathHunter hTrkA-p75.
From the text: as §1, §2, §3, §4, §5
Target sequence in this assay (P04629 33-796): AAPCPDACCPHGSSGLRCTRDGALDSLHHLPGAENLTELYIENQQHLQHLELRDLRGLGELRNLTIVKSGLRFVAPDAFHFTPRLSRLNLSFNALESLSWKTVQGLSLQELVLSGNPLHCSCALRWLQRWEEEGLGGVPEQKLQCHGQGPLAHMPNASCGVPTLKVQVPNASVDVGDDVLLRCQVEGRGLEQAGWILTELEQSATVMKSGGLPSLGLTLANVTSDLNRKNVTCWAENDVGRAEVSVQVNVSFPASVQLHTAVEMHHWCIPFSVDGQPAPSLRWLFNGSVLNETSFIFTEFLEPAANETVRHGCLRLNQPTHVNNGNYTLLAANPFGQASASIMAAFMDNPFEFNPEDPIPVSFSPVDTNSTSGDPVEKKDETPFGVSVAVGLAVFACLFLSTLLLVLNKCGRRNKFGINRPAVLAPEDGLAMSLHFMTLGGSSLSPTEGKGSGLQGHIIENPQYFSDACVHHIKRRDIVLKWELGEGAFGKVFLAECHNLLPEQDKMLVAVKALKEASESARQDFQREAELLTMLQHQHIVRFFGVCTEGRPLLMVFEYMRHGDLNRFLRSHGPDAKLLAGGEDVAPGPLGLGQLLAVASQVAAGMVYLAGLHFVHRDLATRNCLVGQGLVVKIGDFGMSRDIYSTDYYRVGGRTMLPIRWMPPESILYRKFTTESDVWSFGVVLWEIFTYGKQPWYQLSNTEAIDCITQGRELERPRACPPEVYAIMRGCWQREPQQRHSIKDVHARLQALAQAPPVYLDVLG

The target of a further assay is Trk A (Homo sapiens, UniProt P04629). The assay can be described thus: Trk A IC50 values listed in Table 2 of U.S. Pat. No. 9,815,846. The note with it: 14 divided by 0.069; phenyl ring versus pyridine ring.
The mark [7] stands for this setting: Table 2 comparative data, Example 1 values are the PathHunter values of Table 1, read-out: hTrkB IC50.
[8] abbreviates: Table 2 comparative data, Example 1 values are the PathHunter values of Table 1, read-out: hTrkC IC50.
The mark [9] stands for this setting: Table 2 comparative data, Example 1 values are the PathHunter values of Table 1, read-out: hTrkA IC50.

A value given as a limit tells only on which side of the number the result lay.

Usually IC50 stands for the concentration needed to halve the response being measured.

Trk A, sequence (P04629 33-796, species assumed): as the sequence (P04629 33-796) above

With `Cn1ccc(-c2cc(C(=O)Nc3cncc(C(N)=O)c3-c3ccccn3)c(F)cc2C(F)(F)F)n1` [Example 1, 5-[[2-fluoro-5-(1-methylpyrazol-3-yl)-4-(trifluoromethyl)benzoyl]amino]-4-(2-pyridyl)pyridine-3-carboxamide], the IC50 on hTrkB [1] (hU2OS hTrkB-p75 cells, hBDNF 20 ng/ml, N = 25, read-out: Relative IC50 hTrkB, PathHunter cell-based assay) was 6700 nM; at hTrkC [2], 8360 nM; at hTrkC [3] (hU2OS hTrkC-p75 cells, hNT-3 29 ng/ml, N = 24, read-out: Relative IC50 hTrkC, PathHunter cell-based assay), 9010 nM; on hTrkB [4], over 4290 nM; at hTrkA [5] it was 1.09 nM; on hTrkA [6] (hU2OS hTrkA-p75 cells, hNGF 27 ng/ml, N = 32, read-out: Relative IC50 hTrkA, PathHunter cell-based assay) it was 1.24 nM.
Turning to `Cn1ccc(-c2cc(C(=O)Nc3cc(C(N)=O)cnc3-c3ccccc3)ccc2C(F)(F)F)n1` [Example 89 of US Patent No. 9815846], the results for the IC50 at hTrkB [1] (setting [7]), at hTrkC [3] (setting [8]) and on hTrkA [6] (setting [9]) were 713 nM, 452 nM and 1.55 nM, respectively.
Turning to `Cn1ccc(-c2cc(C(=O)Nc3cc4c(nc3-c3ccccn3)CCNC4=O)c(F)cc2C(F)(F)F)n1` [Example 141 of US Patent No. 9815846], the results for the IC50 on hTrkB [1] (setting [7]), on hTrkC [3] (setting [8]) and at hTrkA [6] (setting [9]) were over 47900 nM, 37800 nM and 11.1 nM, respectively.
With `Cn1ccc(-c2cc(C(=O)Nc3cc4c(nc3-c3ccccc3)CCNC4=O)c(F)cc2C(F)(F)F)n1` [Example 152], the “effect on the potency at TrkA, Example 141 IC50 divided by Example 152 IC50” value at Trk A worked out at 202.9 fold.
